Laboratory results from US5756527A, “Imidazole derivatives useful as modulators of multi drug resistances” (Ontogen Corporation, priority 1997, dated 1998).

Legend:
CEM/VLB1000 [1] = experiment: Cytotoxicity potentiation (alamar blue) of vinblastine in multidrug-resistant cells; assay type: cell-based; settings: midpoint of minimum and maximum cytotoxicity induced by 3-5 μg/mL vinblastine and compound, 48 h
Protocol: Multidrug-resistant cell lines are easily obtainable for in vitro determination of drug sensitization by compounds of the present invention. In vitro potentiation of antineoplastic cytotoxicity by the imidazole derivatives of the present invention was measured in both CEM/VLB1000 and SK/VLB1000 cell lines. The multidrug resistant cell lines were obtained from Dr. Victor Ling, Ontario Cancer Institute, Toronto, Canada. The CEM/VLB 1000 cell line was maintained as a suspension in minimum essential medium supplemented with 10% fetal bovine serum in a humidied atmosphere of 95% air and 5% CO2 while the SK/VLB 1000 cell line was maintained as adherent cells using the identical medium conditions as the CEM cells. The CEM/VLB 1000 cells were seeded at a density of 5×10^4 cells/well in a 96 well microtiter plate while the SK/VLB 1000 cell line was seeded at a density of 2,500 cells/well after trypsinization. Vinblastine (5 μg/mL, for the CEM cells) or Taxol (3 μg/mL, for the SK cells) and compound (0.01 to 50 μM) were added directly to the wells. After an incubation of 48 hours in presence of drug, alamar blue (B. Page et al., Int. J. Oncol. 3: 473-476, 1993) was added (10 μL to the 200 μL cell suspension) for a period of 24 hours after which the fluorescence (excitation=530 nm, emission=590 nm) was read for each well using a "CytoFluor" microtiter fluorometer plate reader. This assay measures the effective concentration of compound necessary to enhance the cytotoxicity (EC50) of vinblastine in the MDR cell line.
^1 Values presented are the midpoint (EC50) of the minimum and
maximum cytotoxicity induced by 3-5 μg/mL vinblastine and the specific
compound of the present invention.

CEM/VLB1000 [2] = experiment: [3H]-vinblastine (VLB) accumulation assay; assay type: cell-based; settings: midpoint of minimum and maximum increase in accumulation of 3H-vinblastine (275 nM), 3 hours at 37° C.
Protocol: ^3 H-vinblastine accumulation was also measured in the CEM/VLB1000 cell line. Corning Easy-Wash 96 well plates were pretreated with PBS and 1% BSA for 60 minutes and then removed. CEM/VLB1000 cells were seeded at 2×10^5, 40 μL volume. Plates were incubated at 37° C. for 30-60 minutes prior to use. The reference reversing agent, verapamil, or the compound of the present invention was added to the well followed by addition of media containing ^3 H-vinblastine (final concentration=275nM). Plates were allowed to incubate for 3 hours at 37° C. Cells were harvested onto pretreated Wallace filtermats A (pretreated with 0.1% polyethyleneimine) using a TomTek harvester-96. After filtering, the filtermats were allowed to dry completely. Meltix B scintillant was then added to the filtermats. The filters were then placed in a 90° C. oven for approximately 3-5 minutes and then removed. Scintillant was allowed to solidify on the filtermats. Filtermats were then placed in sample bags and read on a Wallace BetaPlate scintillation counter. The effects of compounds of the present invention in the cytotoxicity potentiation assays and vinblastine (VLB) accumulation assay are given in the Table below:
^2 Values presented are the midpoint (EC50) of the minimum and
maximum increase in accumulation of ^3 Hvinblastine caused by the
specific compound of the present invention.

Row | SMILES | EC50 (CEM/VLB1000 [2]) [nM] | EC50 (CEM/VLB1000 [1]) [nM]
1 | CC(C)OC(=O)/C=C/c1ccc(-c2nc(-c3ccc(N(C)C)cc3)c(-c3ccc(N(C)C)cc3)[nH]2)cc1 [Example 38, 2-[4-(trans-i-propylpropenoate)phenyl]-4,5-bis[(4-N,N-dimethylamino)phenyl]imidazole] | 2400 | 138
2 | CN(C)c1ccc(-c2nc(-c3ccc(/C=C/C(=O)OC(C)(C)C)cc3)[nH]c2-c2ccc(N(C)C)cc2)cc1 [Example 39, 2-[4-(trans-t-butylpropenoate)phenyl]-4,5-bis[(4-N,N-dimethylamino)phenyl] imidazole] | 4500 | 590
3 | CCN(CC)c1ccc(-c2[nH]c(-c3ccc(/C=C/C(=O)OC)cc3)nc2-c2ccc(NC)cc2)cc1 [Example 40, 2-[4-(trans-methylpropenoate)phenyl]-4-[(4-N,N-diethylamino)phenyl]-5-[(4-N-methylamino)phenyl] imidazole] | 1100 | 226
4 | CCOCCCc1ccc(-c2nc(-c3ccc(N(C)C)cc3)c(-c3ccc(N(C)C)cc3)[nH]2)cc1 [Example 69, 2-[4-(3-ethoxypropyl)phenyl]-4,5-bis[(4-N,N-dimethylamino)phenyl] imidazole] |  | 210
5 | CCCCOc1ccc(-c2nc(-c3ccc(N(C)C)cc3)c(-c3ccc(N(C)C)cc3)[nH]2)cc1 [Example 70, 2-[4-butyloxyphenyl]-4,5-bis[(4-N,N-dimethylamino)phenyl] imidazole] |  | 430
6 | COCCOc1ccc(-c2nc(-c3ccc(N(C)C)cc3)c(-c3ccc(N(C)C)cc3)[nH]2)cc1 [Example 71, 2-[4-(2-methoxyethoxy)phenyl]-4,5-bis[(4-N,N-dimethylamino)phenyl] imidazole] |  | 170
7 | COCCOc1ccc(-c2nc(-c3ccc(N(C)C)cc3)c(-c3ccc(N(C)C)cc3)[nH]2)cc1OC [Example 72, 2-[3-methoxy-4-(2-methoxyethoxy)-phenyl]-4,5-bis[(4-N,N-dimethylamino)phenyl] imidazole] |  | 160

The next lines start with results.

Row | EC50 (CEM/VLB1000 [2]) [nM] | SMILES | EC50 (CEM/VLB1000 [1]) [nM]
8 | 6000 | CCN(CC)c1ccc(-c2nc(-c3ccc(/C=C/C(=O)OC(C)C)cc3)[nH]c2-c2ccc(NC)cc2)cc1 [Example 41, 2-[4-(trans-i-propylpropenoate)phenyl]-4-[(4-N,N-diethylamino)phenyl]-5-[(4-N-methylamino)phenyl] imidazole] | 420
9 | 1100 | CNc1ccc(-c2[nH]c(-c3ccc(/C=C/C(=O)OC)cc3)nc2-c2ccc(N(C)C)cc2)cc1 [Example 42, 2-[4-(trans-methylpropenoate)phenyl]-4-[(4-N,N-dimethylamino)phenyl]-5-[(4-N-methylamino)phenyl] imidazole] | 170
10 | 2300 | CCCN(C)c1ccc(-c2nc(-c3ccc(/C=C/C(=O)OC)cc3)[nH]c2-c2ccc(NC)cc2)cc1 [Example 43, 2-[4-(trans-methylpropenoate)phenyl]-4-[(4-N-methyl-N-propylamino)phenyl]-5-[(4-N-methylamino)phenyl] imidazole] | 148
11 | 1400 | CCCN(CCC)c1ccc(-c2[nH]c(-c3ccc(/C=C/C(=O)OC)cc3)nc2-c2ccc(NC)cc2)cc1 [Example 44, 2-[4-(trans-methylpropenoate)phenyl]-4-[(4-N,N-dipropylamino)phenyl]-5-[(4-N-methylamino)phenyl] imidazole] | 165
12 | 10000 | CCCCN(CCCC)c1ccc(-c2[nH]c(-c3ccc(/C=C/C(=O)OC)cc3)nc2-c2ccc(NC)cc2)cc1 [Example 45, 2-[4-(trans-methylpropenoate)phenyl]-4-[(4-N,N-dibutylamino)phenyl]-5-[(4-N-methylamino)phenyl] imidazole] | 1900
13 | 1400 | CNc1ccc(-c2nc(-c3ccc(/C=C/C(=O)OC)cc3)[nH]c2-c2ccc(NC)cc2)cc1 [Example 46, 2-[4-(trans-methylpropenoate)phenyl]-4,5-bis(4-N-methylaminophenyl) imidazole] | 203
